Measurements: ChEMBL document CHEMBL3046044, “Evaluation of mefenamic acid mutual prodrugs” (Med Chem Res, 2013)

Assays:
[1] = Solubility of the compound in chloroform at 10 mg; assay type: physicochemical
Rattus norvegicus [2] = experiment: Effect on protein level in Rattus norvegicus (rat) stomach at 800 mg/kg, po after 12 hr by Bradford method (reference value: 42.5 +/- 5.773 ug/ml); assay type: functional
Rattus norvegicus [3] = experiment: Antioxidant activity in Rattus norvegicus (rat) stomach assessed as effect on GSH level measured per 100 g of protein at 800 mg/kg, po after 12 hr by Ellman's method (reference value: 350.735 +/- 42.887 uM); assay type: functional
Rattus norvegicus [4] = experiment: Anti-inflammatory activity in Rattus norvegicus Wistar albino (rat) assessed as inhibition of carrageenan-induced paw edema at 80 mg/kg, po measured at 4 hr relative to control; assay type: functional
Rattus norvegicus [5] = experiment: Inhibition of superoxide dismutase level in Rattus norvegicus (rat) stomach at 800 mg/kg, po after 12 hr (reference value: 37.096 +/- 7.335%); assay type: functional
Rattus norvegicus [6] = experiment: Anti-inflammatory activity in Rattus norvegicus Wistar albino (rat) assessed as inhibition of carrageenan-induced paw edema at 80 mg/kg, po measured at 24 hr relative to control; assay type: functional
[7] = Solubility of the compound in methanol at 10 mg; assay type: physicochemical
[8] = Solubility of the compound in 0.1 N sodium hydroxide at 10 mg; assay type: physicochemical
Rattus norvegicus [9] = experiment: Ulcerogenicity in Rattus norvegicus (rat) stomach assessed as ulcer index at 800 mg/kg, po after 12 hr (reference value: 3.413 +/- 2.160 no unit); assay type: toxicity, organism-based; parameters: dose 800 mg/kg, route oral; conditions: in vivo
Rattus norvegicus [10] = experiment: Reduction of gastric wall mucus level in Rattus norvegicus (rat) stomach measured per mg of protein at 800 mg/kg, po after 12 hr by alcian blue staining (reference value: 285.680 +/- 3.348 ug); assay type: functional
Rattus norvegicus [11] = experiment: Anti-inflammatory activity in Rattus norvegicus Wistar albino (rat) assessed as inhibition of carrageenan-induced paw edema at 80 mg/kg, po measured at 3 hr relative to control; assay type: functional
[12] = Solubility of the compound in dichloromethane at 10 mg; assay type: physicochemical
[13] = Solubility of the compound in benzene at 10 mg; assay type: physicochemical
[14] = Solubility of the compound in 0.1 N hydrochloric acid at 10 mg; assay type: physicochemical
Rattus norvegicus [15] = experiment: Antioxidant activity in Rattus norvegicus (rat) stomach assessed as effect on catalase level measured per mg of protein at 800 mg/kg, po after 12 hr by spectrophotometric analysis (reference value: 26.055 +/- 4.669 U); assay type: functional
Mus musculus = experiment: Analgesic activity in po dosed Mus musculus Swiss albino (mouse) assessed as inhibition of acetic acid-induced writhing administered 1 hr prior to acetic acid challenge measured for 20 min relative to control; assay type: functional
[16] = Solubility of the compound in ethanol at 10 mg; assay type: physicochemical
Rattus norvegicus [17] = experiment: Antioxidant activity in Rattus norvegicus (rat) stomach assessed as reduction of lipid peroxidation measured MDA level per mg of protein at 1240 mg/kg, po after 12 hr by TBARS assay (reference value: 4.388 +/- 0.404 nM); assay type: functional
Rattus norvegicus [18] = experiment: Increase in hexosamine level in Rattus norvegicus (rat) stomach at 800 mg/kg, po after 12 hr (reference value: 122.323 +/- 4.639 ug/ml); assay type: functional
Rattus norvegicus [19] = experiment: Anti-inflammatory activity in Rattus norvegicus Wistar albino (rat) assessed as inhibition of carrageenan-induced paw edema at 80 mg/kg, po measured at 6 hr relative to control; assay type: functional
Rattus norvegicus [20] = experiment: Anti-inflammatory activity in Rattus norvegicus Wistar albino (rat) assessed as inhibition of carrageenan-induced paw edema at 126 mg/kg, po measured at 6 hr relative to control; assay type: functional
Rattus norvegicus [21] = experiment: Antioxidant activity in Rattus norvegicus (rat) stomach assessed as reduction of lipid peroxidation measured MDA level per mg of protein at 800 mg/kg, po after 12 hr by TBARS assay (reference value: 4.388 +/- 0.404 nM); assay type: functional
Rattus norvegicus [22] = experiment: Reduction of gastric wall mucus level in Rattus norvegicus (rat) stomach measured per mg of protein at 1260 mg/kg, po after 12 hr by alcian blue staining (reference value: 285.680 +/- 3.348 ug); assay type: functional
[23] = Half life in Homo sapiens (human) 80% plasma at 10 mg at pH 7.4; assay type: ADME, cell-free; conditions: 80% human plasma
[24] = Half life in hydrochloric acid buffer at 10 mg at pH 1.2; assay type: physicochemical
Rattus norvegicus [25] = experiment: Antioxidant activity in Rattus norvegicus (rat) stomach assessed as effect on GSH level measured per 100 g of protein at 1260 mg/kg, po after 12 hr by Ellman's method (reference value: 350.735 +/- 42.887 uM); assay type: functional
[26] = n-Octanol-phosphate buffer partition coefficient, log P of the compound at pH 7.4 by HPLC method; assay type: physicochemical
Rattus norvegicus [27] = experiment: Anti-inflammatory activity in Rattus norvegicus Wistar albino (rat) assessed as inhibition of carrageenan-induced paw edema at 126 mg/kg, po measured at 4 hr relative to control; assay type: functional
Rattus norvegicus [28] = experiment: Increase in hexosamine level in Rattus norvegicus (rat) stomach at 1260 mg/kg, po after 12 hr (reference value: 122.323 +/- 4.639 ug/ml); assay type: functional
Rattus norvegicus [29] = experiment: Anti-inflammatory activity in Rattus norvegicus Wistar albino (rat) assessed as inhibition of carrageenan-induced paw edema at 126 mg/kg, po measured at 24 hr relative to control; assay type: functional
Rattus norvegicus [30] = experiment: Inhibition of superoxide dismutase level in Rattus norvegicus (rat) stomach at 1260 mg/kg, po after 12 hr (reference value: 37.096 +/- 7.335%); assay type: functional
Rattus norvegicus [31] = experiment: Effect on protein level in Rattus norvegicus (rat) stomach at 1260 mg/kg, po after 12 hr by Bradford method (reference value: 42.5 +/- 5.773 ug/ml); assay type: functional
[32] = Half life in isotonic phosphate buffer at 10 mg at pH 7.4; assay type: physicochemical
Rattus norvegicus [33] = experiment: Ulcerogenicity in Rattus norvegicus (rat) stomach assessed as ulcer index at 1260 mg/kg, po after 12 hr (reference value: 3.413 +/- 2.160 no unit); assay type: toxicity, organism-based; parameters: dose 1260 mg/kg, route oral; conditions: in vivo
Rattus norvegicus [34] = experiment: Anti-inflammatory activity in Rattus norvegicus Wistar albino (rat) assessed as inhibition of carrageenan-induced paw edema at 126 mg/kg, po measured at 3 hr relative to control; assay type: functional
Rattus norvegicus [35] = experiment: Antioxidant activity in Rattus norvegicus (rat) stomach assessed as effect on catalase level measured per mg of protein at 1260 mg/kg, po after 12 hr by spectrophotometric analysis (reference value: 26.055 +/- 4.669 U); assay type: functional
Rattus norvegicus [36] = experiment: Reduction of gastric wall mucus level in Rattus norvegicus (rat) stomach measured per mg of protein at 1240 mg/kg, po after 12 hr by alcian blue staining (reference value: 285.680 +/- 3.348 ug); assay type: functional
Rattus norvegicus [37] = experiment: Antioxidant activity in Rattus norvegicus (rat) stomach assessed as reduction of lipid peroxidation measured MDA level per mg of protein at 1260 mg/kg, po after 12 hr by TBARS assay (reference value: 4.388 +/- 0.404 nM); assay type: functional
Rattus norvegicus [38] = experiment: Antioxidant activity in Rattus norvegicus (rat) stomach assessed as effect on catalase level measured per mg of protein at 1240 mg/kg, po after 12 hr by spectrophotometric analysis (reference value: 26.055 +/- 4.669 U); assay type: functional
Rattus norvegicus [39] = experiment: Inhibition of superoxide dismutase level in Rattus norvegicus (rat) stomach at 1240 mg/kg, po after 12 hr (reference value: 37.096 +/- 7.335%); assay type: functional
Rattus norvegicus [40] = experiment: Anti-inflammatory activity in Rattus norvegicus Wistar albino (rat) assessed as inhibition of carrageenan-induced paw edema at 124 mg/kg, po measured at 6 hr relative to control; assay type: functional
Rattus norvegicus [41] = experiment: Anti-inflammatory activity in Rattus norvegicus Wistar albino (rat) assessed as inhibition of carrageenan-induced paw edema at 124 mg/kg, po measured at 4 hr relative to control; assay type: functional
Rattus norvegicus [42] = experiment: Anti-inflammatory activity in Rattus norvegicus Wistar albino (rat) assessed as inhibition of carrageenan-induced paw edema at 124 mg/kg, po measured at 3 hr relative to control; assay type: functional
Rattus norvegicus [43] = experiment: Anti-inflammatory activity in Rattus norvegicus Wistar albino (rat) assessed as inhibition of carrageenan-induced paw edema at 124 mg/kg, po measured at 24 hr relative to control; assay type: functional
Rattus norvegicus [44] = experiment: Antioxidant activity in Rattus norvegicus (rat) stomach assessed as effect on GSH level measured per 100 g of protein at 1240 mg/kg, po after 12 hr by Ellman's method (reference value: 350.735 +/- 42.887 uM); assay type: functional
Rattus norvegicus [45] = experiment: Effect on protein level in Rattus norvegicus (rat) stomach at 1240 mg/kg, po after 12 hr by Bradford method (reference value: 42.5 +/- 5.773 ug/ml); assay type: functional
Rattus norvegicus [46] = experiment: Increase in hexosamine level in Rattus norvegicus (rat) stomach at 1240 mg/kg, po after 12 hr (reference value: 122.323 +/- 4.639 ug/ml); assay type: functional
Rattus norvegicus [47] = experiment: Ulcerogenicity in Rattus norvegicus (rat) stomach assessed as ulcer index at 1240 mg/kg, po after 12 hr (reference value: 3.413 +/- 2.160 no unit); assay type: toxicity, organism-based; parameters: dose 1240 mg/kg, route oral; conditions: in vivo

Cc1cccc(Nc2ccccc2C(=O)O)c1C [MEFENAMIC ACID]
solubility [1]: soluble
Activity (Rattus norvegicus [2]): 12.083 µg/mL
Activity (Rattus norvegicus [3]): 413.603 µM
inhibition in vivo at 80 mg/kg (Rattus norvegicus [4]): 50.6%
inhibition in vivo at 800 mg/kg (Rattus norvegicus [5]): 24.2%
inhibition in vivo at 80 mg/kg (Rattus norvegicus [6]): 69.1%
solubility [7]: soluble
solubility [8]: soluble
UI (Rattus norvegicus [9]): 10.867
Activity (Rattus norvegicus [10]): 170.026 µg
inhibition in vivo at 80 mg/kg (Rattus norvegicus [11]): 48.8%
solubility [12]: soluble
solubility [13]: soluble
solubility [14]: Insoluble
Activity (Rattus norvegicus [15]): 4.587 U
inhibition (INH) (Mus musculus): 63.321%
solubility [16]: soluble
Activity (Rattus norvegicus [17]): 26.25 nM
Activity (Rattus norvegicus [18]): 139.224 µg/mL
inhibition in vivo at 80 mg/kg (Rattus norvegicus [19]): 64.1%

Cc1cccc(Nc2ccccc2C(=O)OC2CC(C)CCC2C(C)C)c1C (stereo not drawn) [Mefenamic acid-menthol]
inhibition in vivo at 126 mg/kg (Rattus norvegicus [20]): 51.6%
solubility [1]: soluble
Activity (Rattus norvegicus [21]): 16.056 nM
Activity (Rattus norvegicus [22]): 227.7692 µg
solubility [7]: soluble
solubility [8]: soluble
half-life [23]: 85.8 min
half-life [24]: 1250 min
Activity (Rattus norvegicus [25]): 261.03 µM
logD [26]: 4.98
solubility [12]: soluble
inhibition in vivo at 126 mg/kg (Rattus norvegicus [27]): 44.1%
Activity (Rattus norvegicus [28]): 144.445 µg/mL
solubility [13]: soluble
solubility [14]: Insoluble
inhibition in vivo at 126 mg/kg (Rattus norvegicus [29]): 67.1%
inhibition (INH) (Mus musculus): 55.184%
inhibition in vivo at 1260 mg/kg (Rattus norvegicus [30]): 29.2%
Activity (Rattus norvegicus [31]): 32.083 µg/mL
half-life [32]: 532 min
solubility [16]: soluble
UI (Rattus norvegicus [33]): 5.117
inhibition in vivo at 126 mg/kg (Rattus norvegicus [34]): 41.7%
Activity (Rattus norvegicus [35]): 23.807 U

Cc1ccc(C(C)C)c(OC(=O)c2ccccc2Nc2cccc(C)c2C)c1
solubility [1]: soluble
Activity (Rattus norvegicus [36]): 190.256 µg
Activity (Rattus norvegicus [37]): 13.972 nM
solubility [7]: soluble
Activity (Rattus norvegicus [38]): 23.089 U
solubility [8]: soluble
half-life [23]: 68.4 min
inhibition in vivo at 1240 mg/kg (Rattus norvegicus [39]): 33.3%
half-life [24]: 1380 min
inhibition in vivo at 124 mg/kg (Rattus norvegicus [40]): 51%
logD [26]: 5.45
inhibition in vivo at 124 mg/kg (Rattus norvegicus [41]): 41.7%
solubility [12]: soluble
solubility [13]: soluble
inhibition in vivo at 124 mg/kg (Rattus norvegicus [42]): 37.8%
solubility [14]: Insoluble
inhibition in vivo at 124 mg/kg (Rattus norvegicus [43]): 62.4%
Activity (Rattus norvegicus [44]): 286.765 µM
inhibition (INH) (Mus musculus): 52.722%
Activity (Rattus norvegicus [45]): 42.917 µg/mL
half-life [32]: 427 min
solubility [16]: soluble
Activity (Rattus norvegicus [46]): 151.249 µg/mL
UI (Rattus norvegicus [47]): 6.833
